Test results from US5395841A, “4-benzylpiperidines for treating phychosis” (Ferrer Internacional, S.A., priority 1992, dated 1995).
Structures can show the parent of a compound that is named as a salt.

Each compound was assayed against sigma-receptor (Cavia porcellus, UniProt Q60492) (assay: Sigma-receptor binding ([3H]3-PPP displacement, membranes of guinea pig total brain)). Conditions: 2 nM (+)[3H]3-PPP, guinea pig total brain membrane, 90 min at 25° C., pH 8.5 TRIS.HCl, eleven concentrations; read-out: IC50 (inhibitory concentration 50%).
sigma-receptor, sequence (Q60492 whole entry): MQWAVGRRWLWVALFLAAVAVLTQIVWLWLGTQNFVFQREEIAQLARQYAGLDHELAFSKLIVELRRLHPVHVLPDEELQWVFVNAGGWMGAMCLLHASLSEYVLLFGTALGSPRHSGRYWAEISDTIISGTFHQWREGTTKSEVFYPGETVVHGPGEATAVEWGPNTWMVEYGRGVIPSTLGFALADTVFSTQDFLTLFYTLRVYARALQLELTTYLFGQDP
`O=C1CC2(CCCC2)CC(=O)N1CCCCN1CCC(Cc2ccc(F)cc2)CC1` [Example 10, 8-[4-[4-(p-Fluorobenzyl)-1-piperidinyl]butyl]-8-azaspiro[4,5] decane-7,9-dione hydrochloride] gave an IC50 of 1.89 nM.
In the case of `CCCN1CCC(Cc2ccc(F)cc2)CC1` [Example 1, 4-p-Fluorobenzyl-1-propylpiperidine hydrochloride], the IC50 is reported as 2.95 nM.
With `Fc1ccc(CC2CCN(CCCOc3ccc(F)cc3)CC2)cc1` [Example 8, 4-(p-Fluorobenzyl)-1-[3-(p-fluorophenoxy)propyl]piperidine dibenzoate] the IC50 was 4.5 nM.
For `Fc1ccc(CC2CCN(CCCOc3ccc(F)cc3)CC2)cc1` [Example 11, 4-(p-Fluorobenzyl)-1-[3-(p-fluorophenoxy)propyl]piperidine hydrochloride], the IC50 was 4.2 nM.
With `Fc1ccc(CC2CCN(CCCC(c3ccc(F)cc3)c3ccc(F)cc3)CC2)cc1` [Example 9, 4-(p-Fluorobenzyl)-1-[4,4-bis(p-fluorophenyl)butyl]piperidine tribenzoate] the IC50 was 72 nM.
For `O=C(CCCN1CCC(Cc2ccc(F)cc2)CC1)c1ccc(F)cc1` [Example 5, 4-p-Fluorobenzyl-1-(4-p-fluorophenyl-4-oxo)butylpiperidine hydrochloride], the IC50 was 2.4 nM.
`OC(CCCN1CCC(Cc2ccc(F)cc2)CC1)c1ccc(F)cc1` (centres unmarked) [Example 7, 4-(p-Fluorobenzyl)-1-(4-fluorophenyl-4-hydroxy)butylpiperidine hydrochloride] gave an IC50 of 8.8 nM.
For `OC(CCCN1CCC(Cc2ccccc2)CC1)c1ccc(F)cc1` (centres unmarked) [Example 6, 4-Benzyl-1-(4-hydroxi-4-p-fluorophenyl)butylpiperidine hydrochloride], the IC50 was 1.49 nM.
